Values joined by “and” are separate entries in the source; they are usually repeats but may differ in a detail not shown here. Equal entries are not always repeated. Active and inactive are the calls of the source.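 How the source made its calls: active means compounds giving half or more protection of infected cells from virus-caused growth loss, again on retest; inactive means the rest.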 Where a SMILES comes first, the peptide text is derived from it. [ ]: non-standard residue; d: D form. The star is where a group is joined. Phe(4-NO2) = N[CH](Cc1ccc([N+](=O)[O-])cc1)C(=O)O; Boc = CC(C)(C)OC(=O)* A value given as a limit tells only on which side of the number the result lay.

Experimental findings from PubChem BioAssay AID179 (DTP/NCI, 2004) are described below.

The test has as its system CEM cells HIV-1 protection, formazan growth assay. Nature of the test: NCI AIDS Antiviral Assay. As to conditions: for IC50: measured here: growth of uninfected CEM cells. The essentials:
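Protection of CEM cells against HIV-1 was scored from cell growth (soluble formazan) across five concentrations, with parallel uninfected cells. Lack of protection may reflect toxicity.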

As for `C=C(C)S(=O)(=O)c1ccccc1`, the result was inactive.

Consider `Cn1cc(C=O)c2nccnc21`, for which the EC50 is greater than 1050 µM and the IC50 is greater than 1050 µM.

Turning to `COc1ccc(O)c(/C=N/NC(=S)N2CCCCC2)c1`, the EC50 is greater than 200 µM and the half-inhibitory concentration (IC50) was 8.13 µM.

`CCOC(=O)C1=C(C)NC(CO)=C(C(=O)OCC)C1c1cccc([N+](=O)[O-])c1` (configuration not stated): the EC50 is greater than 2 µM and the IC50 turned out to be 0.355 µM.

Take `C[C@@H]1OCN(C(=O)c2ccccc2SSc2ccccc2C(=O)N2CO[C@H](C)[C@H]2C(=O)O)[C@H]1C(=O)O`: the EC50 is greater than 200 µM and the half-maximal inhibitory concentration (IC50) was greater than 200 µM.

Turning to `COc1cc(/C=C2/SC(c3ccccc3)N(c3ccc(Cl)cc3)C2=O)cc(OC)c1OC` (configuration not stated), the result was inactive.

Consider `CCc1ccc(/C(C)=N/NC(N)=S)cc1`, for which the outcome was inactive.

`CCOC(=O)SC1=NC(C)=CC(C)(C)S1`: the EC50 was 53.7 µM and the IC50 is 145 µM.

`COc1ccc2c(c1)C(=O)C1NC(=O)NC(=O)C1(Br)N2` (configuration not stated): the EC50 is greater than 200 µM and the IC50 is greater than 200 µM.

Turning to `O=C(NOC(=O)c1ccc([N+](=O)[O-])cc1)c1ccc(Cl)cc1`, the EC50 is greater than 112 µM and the IC50 was greater than 112 µM.

On to `CC/C=C\C/C=C\C1CC(=O)NCCCNCCCCN1` (configuration not stated), for which the outcome was inactive.

`CC(C)CC(NC(=O)C(Cc1ccc(O)cc1)NC(=O)C(CO)NC(=O)C(N)CCC(=O)O)C(=O)NCC(=O)O` (configuration not stated) (H-ESYLG-OH; configuration not given here): the outcome was inactive.

Regarding `CC1(C)COC(c2cccc(C3=NC(C)(C)CO3)c2Br)=N1`, the EC50 was greater than 200 µM and the IC50 was 151 µM.

As to `CC1=C(/C=C/C(C)=C/C=C/C(C)=C/C=O)C(C)(C)CCC1`, the outcome was inactive.

As for `O=C1c2ccccc2Sc2ccccc2N1CCCN1CCN(c2ccc(F)cc2)CC1`, the EC50 is greater than 200 µM and the IC50 was 33.9 µM.

Turning to `CCn1cc(C(=O)O)c(=O)c2cc3c(cc21)OCO3`, the EC50 was greater than 38 µM and the half-maximal inhibitory concentration (IC50) was greater than 38 µM.

With `O=[N+]([O-])c1ccc(N=Nc2c(NNc3ccc([N+](=O)[O-])cn3)cc(S(=O)(=O)O)c3ccccc23)nc1`, the result was inactive.

On to `COc1cccc2c1C(=O)c1c(O)c3c(c(O)c1C2=O)C[C@@](O)(C(C)=O)C[C@@H]3OC1CC(N(C)C)C(O)C(C)O1` (some centres not stated), for which the outcome was inactive.

`COc1cc2cc3c4c(cc(OC)c(OC)c4c2cc1OC)CCN3C(=O)CCCC(=O)O`: the EC50 is greater than 200 µM and the IC50 was found to be 110 µM.

As to `COCc1cc2c(cc1/C=C/[N+](=O)[O-])OCO2`, the EC50 is greater than 200 µM and the half-inhibitory concentration (IC50) came to 2.95 µM.

As to `COc1cc2c(c(OC)c1)C(C)=NC(C)C2` (configuration not stated), the EC50 was greater than 200 µM and the 50% inhibitory concentration (IC50) was 141 µM.

Regarding `CC(C)(C)OC(=O)NC(Cc1ccc(O)cn1)C(N)=O` (configuration not stated), the EC50 is greater than 200 µM and the IC50 was greater than 200 µM.

As to `Cc1ccc(C2(c3ccccc3)OC3OC=CC32)cc1` (configuration not stated), the EC50 was greater than 200 µM and the half-inhibitory concentration (IC50) was 70.8 µM.

With `Cc1ccc(N=NN(C)C(C)C(O)Cc2ccccc2)cc1` (configuration not stated), the EC50 was greater than 200 µM and the IC50 is 77.6 µM.

On to `Cc1[nH]cc2c1C(c1ccccc1F)=NCC(=O)N2`, for which the EC50 is greater than 229 µM and the IC50 is greater than 229 µM.

As for `COc1ccc(C2=NOC(N)(c3ccc(OC)cc3)C2)cc1` (configuration not stated), the EC50 is greater than 200 µM and the concentration for half-maximal inhibition (IC50) is greater than 200 µM.

`O=C1OC2(c3ccccc3Oc3ccccc32)c2ccccc21`: the outcome was inactive.

Take `COc1ccc(N=C2C(=Nc3ccc(OC)cc3)N(S(=O)(=O)c3ccccc3)C(=S)N2c2ccc(OC)cc2)cc1`: the EC50 is greater than 200 µM and the IC50 is greater than 200 µM.

With `O=C(O)c1cc(-n2c(-c3ccccc3)cc3c2CCc2ccccc2-3)ccc1O`, the outcome was inactive.

With `CCC[CH2][Sn]([CH2]CCC)([O]C(=O)c1cccc(F)c1F)[O]C(=O)c1cccc(F)c1F`, the EC50 was greater than 9.55 µM and the IC50 came to 3.55 µM.

For the molecule `O=C1NC(=S)N/C1=C/c1ccccc1O`, the EC50 was greater than 200 µM and the IC50 was determined as 123 µM.

Regarding `Cc1ccc(-c2cc(=O)c(=O)[nH][nH]2)cc1`, the EC50 is greater than 200 µM and the IC50 was greater than 200 µM.

Take `S=c1cc(-c2ccc3c(c2)OCO3)s[nH]1`: the EC50 was greater than 200 µM and the half-maximal inhibitory concentration (IC50) came out at 162 µM.

Turning to `CC(=O)N1C(Nc2cccc3nc(C)ccc23)CCN1c1ccccc1` (configuration not stated), the EC50 is greater than 200 µM and the half-inhibitory concentration (IC50) came to 14.8 µM.

In the case of `Nc1cc(-c2ccc(Cl)cc2)nn1-c1nnc2c(n1)[nH]c1ccccc12`, the EC50 was greater than 200 µM and the half-maximal inhibitory concentration (IC50) was greater than 200 µM.

Consider `COC(=O)C[C@](O)(CCCC(C)(C)O)C(=O)O[C@@H]1C(OC)=C[C@]23CCCN2CCc2cc4c(cc2[C@H]13)OCO4`, for which the EC50 is greater than 2.29 µM and the half-inhibitory concentration (IC50) is 0.0138 µM.

As for `COC(=O)[C@H]1[C@H]2C[C@@H]3c4[nH]c5cccc(OC)c5c4CCN3C[C@H]2CC[C@H]1O`, the EC50 was greater than 200 µM and the IC50 was greater than 200 µM.

On to `COC(=O)CCC(NC(=O)OC(C)(C)C)C(=O)NC(Cc1ccc([N+](=O)[O-])cc1)C(=O)NC(CCC(=O)OC)C(=O)OC` (configuration not stated) (Boc-Glu(OMe)-[Phe(4-NO2)]-Glu(OMe)-OMe; configuration not given here), for which the EC50 is greater than 100 µM and the IC50 turned out to be 47.9 µM.

Regarding `CC(C)CC(NC(=O)c1ccccc1SC(=O)CCCC[n+]1ccccc1)C(N)=O` (configuration not stated), the EC50 was 1.74 µM and the IC50 came to 4.07 µM.

For `COc1cc(CNc2nc3ccccc3nc2C(=O)O)cc(OC)c1OC`, the EC50 is greater than 200 µM and the 50% inhibitory concentration (IC50) stood at 74.1 µM.

Consider `CC1CC2(C)ON=C(c3ccccc3)N2c2ccccc2S1` (configuration not stated), for which the result was inactive.

`N#Cc1c(-c2ccccc2)c(C#N)c(=S)n(C2OC(CO)C(O)C(O)C2O)c1N` (configuration not stated): the EC50 is greater than 200 µM; the half-inhibitory concentration (IC50) was 83.2 µM and 64.6 µM.

Turning to `N#CC1(c2ccccc2)CCN(C2(c3ccccc3)CCCCC2)CC1`, the EC50 is greater than 200 µM and the IC50 is greater than 200 µM.

Turning to `Cc1cn(C2OC(CO)C(CN=[N+]=[N-])C2O)c(=O)[nH]c1=O` (configuration not stated), the EC50 was greater than 200 µM and the half-inhibitory concentration (IC50) is greater than 200 µM.

As to `C=C[C@@H]1c2ccccc2C=C[C@]1(CCC1(C)OCCO1)C1=NC(COC)[C@H](c2ccccc2)O1` (some centres not stated), the EC50 is greater than 8.13 µM and the half-inhibitory concentration (IC50) is greater than 8.13 µM.

Take `N=c1c2c3n(c4c(=O)n(-c5ccccc5)c(=S)n(c(=O)n1-c1ccccc1)c24)CCCCC3`: the EC50 was greater than 100 µM and the IC50 was greater than 100 µM.

Turning to `CC(=O)OCC1OC(SC2=NC(=O)/C(=C/c3ccccc3)S2)C(OC(C)=O)C(OC(C)=O)C1OC(C)=O` (configuration not stated), the EC50 was greater than 200 µM and the IC50 came out at 32.4 µM.

`O=C1CC2(CCc3ccccc32)C(=O)N1CN1CCN(c2ccccn2)CC1` (configuration not stated): the EC50 is greater than 87.1 µM and the IC50 stood at 70.8 µM.

Turning to `Cc1cc(NS(=O)(=O)c2ccc(NC(=O)c3cccc4c(Nc5ccc(S(=O)(=O)Nc6cc(C)on6)cc5)c5ccc(Cl)cc5nc34)cc2)no1`, the EC50 was greater than 240 µM and the IC50 amounted to 135 µM.

Consider `C/C(C=C(C#N)C#N)=C\c1ccc(N(C)C)cc1`, for which the EC50 is greater than 21.9 µM and the IC50 is greater than 21.9 µM.

Take `Cc1nnc(NS(=O)(=O)c2ccc(N=Nc3cc(N=Nc4ccc(S(=O)(=O)Nc5nnc(C)s5)cc4)c4c(NC(=O)C(Cl)Cl)cccc4c3OC(=O)C(Cl)Cl)cc2)s1` (tested in a mixture with another compound): the outcome was inactive.

Regarding `CCC(C)C1(O)OC2CC3(C)OC(=CC3=O)/C(C)=C\C3OC(=O)C1(C)C32` (configuration not stated), the EC50 is greater than 138 µM and the IC50 is 7.59 µM.

`CC/C(CC(=O)CCC(=O)Nc1ccc(C)c(C)c1)=N\NC(=O)c1cc2ccccc2cc1O`: the EC50 was greater than 15.8 µM and the IC50 is 10 µM.

Consider `S=c1sc2c(Cl)nc(Cl)nc2n1-c1ccccc1`, for which the EC50 is greater than 31.6 µM and the IC50 was greater than 31.6 µM.

For `Cn1c(-c2csc(-c3ccc(Cl)cc3)n2)n[nH]c1=S`, the EC50 is greater than 200 µM and the IC50 was greater than 200 µM.

With `Cc1cc(=O)[nH]c(-n2[nH]c(C)c(CCO)c2=O)n1`, the EC50 is greater than 200 µM and the IC50 is greater than 200 µM.

Turning to `Cc1ccc(S(=O)(=O)N/N=C2\CCCCCCCCCCC2CN(C)C)cc1` (configuration not stated), the EC50 was greater than 200 µM and the IC50 turned out to be 28.2 µM.

Turning to `Cc1ccc(N(C(=O)Nc2ccccc2)C2=NCC(C)S2)cc1C` (configuration not stated), the EC50 is greater than 200 µM and the 50% inhibitory concentration (IC50) is greater than 200 µM.

Regarding `CCCCCCCC(=O)OCC1OC(n2cc(F)c(=O)[nH]c2=O)C(NC(=O)OCc2ccccc2)C(O)C1O` (configuration not stated), the EC50 was greater than 64.6 µM and the 50% inhibitory concentration (IC50) turned out to be 56.2 µM.

In the case of `CC(=O)C(N=NC1CCC(S(=O)(=O)NB2N=CS2)CC1)C(=O)Nc1ccccc1C` (configuration not stated), the EC50 was greater than 11.5 µM and the IC50 is greater than 11.5 µM.

In the case of `S=C(Nc1ccccn1)Nc1ccccn1`, the EC50 was greater than 200 µM and the IC50 came out at 195 µM.

With `CCOC(=O)C12C(C(=O)O)=C(N)CN1CCc1c2[nH]c2ccccc12` (configuration not stated), the EC50 is greater than 58.9 µM and the concentration for half-maximal inhibition (IC50) was greater than 58.9 µM.

On to `O=C(CNc1cccc(Cl)c1)Nn1c(-c2ccccc2)nc2ccccc2c1=O`, for which the EC50 is greater than 200 µM and the IC50 was 2.75 µM.

On to `Cc1ccsc1/C=N/Nc1cc(C)c2cccc(C)c2n1`, for which the EC50 is greater than 200 µM and the half-maximal inhibitory concentration (IC50) stood at 138 µM.

For `Cn1c2c(c(=O)n(C)c1=O)C(C(=O)O)CC(=O)N2` (configuration not stated), the EC50 is greater than 200 µM and the IC50 is 170 µM.

In the case of `CC1=CC(N2C(=O)C(C)=CC2O)NC1=O` (configuration not stated), the result was inactive.

On to `O=C(O)c1nc2ccccc2nc1NCc1ccc(F)cc1`, for which the EC50 is greater than 200 µM and the IC50 turned out to be 56.2 µM.

With `CCOC(=O)C(=O)Cc1cc(=O)n(C)c2ccccc12`, the EC50 is greater than 200 µM and the IC50 was 170 µM.

For `CC(=O)c1nc2ccccc2n1C(C)C(=O)c1ccccc1` (configuration not stated), the EC50 was greater than 200 µM and the IC50 was 11.2 µM.

Consider `CCN(CC)CCOc1ccc(C(=C2CCCCC2)c2ccc(OCCN(CC)CC)cc2)cc1`, for which the EC50 was greater than 38.9 µM and the IC50 came out at 2.19 µM.
